The test system of series [1] is R3230AC rat mammary adenocarcinoma. The experiment in a line: Tumour imaging using hyperpolarised 13C-pyruvate as imaging agent (13C-MR imaging of tumour-bearing rats). In kind it is in vivo. As for the experimental part:
R3230AC is a rat mammary adenocarcinoma that can be maintained in female Fischer 344 rats. To establish the animal tumour model, a frozen vial of R32030 cells containing RPMI 1640, 10% FBS and 10% DMSO was rapidly thawed in 37° C. Thereafter, the cell solution was transferred to FBS and increasing volumes of RPMI 1640 were added. Finally, the cell suspension was transferred to a 25 cm^2growth flask and put into an incubator at 37° C., 5% CO2. Growth media were changed every other day. At the day of rat infection, removal of cells was carried out either by mechanical force or by means of trypsin. Cells were washed using phosphate buffer lacking calcium and magnesium. Trypsin (0.05% trypsin in 0.02% EDTA) was added for 2-5 min. Then, 5 ml FBS was added and the cells were transferred into a beaker containing RPMI 1640 with FCS and antibiotics (100 IU/ml penicillin, 100 IU/ml streptomycin and 2.5 µg/ml amphotericin […]). The cell solution was centrifugated and the cell pellet was resuspended in 20 ml RPMI with FBS and antibiotics, centrifugation and resuspension was repeated. The cells were then aliquoted to vials containing 4×10^6 cells/ml RPMI 1640. To obtain donor tumours, female Fischer 344 rats (Charles River, 180-200 g) were anaesthetised and 0.3 ml of the cell suspension was subcutaneously injected in the inguinal region on both sides. 15 and 22 days later, pieces of tumour were prepared as described in F. A. Burgener et al., Invest Radiol 2216 (1987), 472-478; S. Saini et al., J. Magn. Reson, 129/1 (1997), 35-43). Two incisions were made on the ventral abdomen of recipient female Fischer rats. A tumour piece was inserted into each pocket and the incisions were closed. Rats were brought to imaging 12-14 days after tumour engrafting.
Weighed rats were anaesthetised using isoflurane (2-3%) and kept on a heated table to ensure a body temperature of about 37° C. A catheter was introduced into the tail vein and into the arteria carotis communis sinistra. The rats were transported to the MR machine and placed on a home-built pad that was heated to approx. 37° C. by means of circulating FC-104 Fluorinert. This liquid will not give rise to background signals in ^1H- and ^13C-MR imaging. Anaesthesia was continued by means of 1-2% isoflurane delivered via a long tube to an open-breathing system at a rate of 0.4 L/min. The arterial catheter was connected via a T-tube to a pressure recorder and a pump delivering saline (rate […]) to prevent catheter clotting. Rats were positioned in a rat MR coil (Rapid Biomedical, Germany) and imaging using a standard proton MR imaging sequence to get anatomical information and to determine the location of the tumour.
Based on the proton frequency found by the MR system the MR frequency for ^13C1-alanine was calculated according to the following equation: Frequency ^13C1-alanine=0.25144×[(system frequency proton×1.00021)−0.000397708]
The frequency calculated positioned the MR signal arising from ^13C1-alanine on resonance with ^13C1-lactate on the left and ^13C1-pyruvate resonating on the right of ^13C1-alanine. An unlocalised MR spectroscopy sequence was run to ensure that the ^13C-MR coil and the system MR frequency had been set up correctly. The ^13C-image location was positioned to cover the tumour (slice thickness 10 mm, in plane pixel size 5×5 mm^2). In the reconstruction phase, the image data was zero-filled to result in 2.5×2.5×10 mm^3 resolution. ^13C1-pyruvate in TRIS buffer (90 mM) was injected in a dose of 10 ml/kg during a period of 12 s with a minimum volume of 2 ml into the tail vein and 30 s after the start of the injection (i.e. 18 s after finishing the injection), the chemical shift ^13C-MR sequence was started. 5.4 Analysis of the MR Imaging Data
In the reconstruction phase, the matrix was zero-filled to 32×32, a mathematical operation that helps to improve the spatial resolution. […]

A short description of series [2]: DNP polarisation of 13C1-pyruvic acid, solid-state 13C-NMR DNP enhancement. As to conditions: 20 mM Tris(8-carboxy-2,2,6,6-tetra(hydroxyethoxy)methyl-benzo[1,2-d:4,5-d']bis(1,3)dithiole-4-yl)methyl sodium salt; 1.2 K, 3.35 T, 93.950 GHz; from thermal equilibrium and enhanced NMR signal. In kind it is physicochemical. As for the experimental part: A 20 mM solution was prepared by dissolving Tris(8-carboxy-2,2,6,6-tetra(hydroxyethoxy)methyl-benzo[1,2-d:4,5-d′]-bis-(1,3)-dithiole-4-yl)methyl sodium salt in ^13C1-pyruvic acid (83.1 mg). The sample was mixed to homogeneity, placed in a sample cup and inserted in the DNP polariser. The sample was polarised under DNP conditions at 1.2 K in a 3.35 T magnetic field under irradiation with microwave (93.950 GHz). The ^13C-NMR signal from the sample was acquired using a Varian Inova-200 NMR spectrometer. The DNP enhancement was calculated from a measurement of the thermal equilibrium ^13C-NMR signal and the enhanced NMR signal. 16% ^13C polarisation was obtained.

The mark [3] stands for this setting: rat, R3230AC tumours, 90 mM in TRIS, 10 ml/kg i.v. tail vein, imaging 30 s after start of injection.

Structures are written as SMILES.

Here are results for 2 molecules from patent publication US9023320B2, “Method of producing a composition, composition and its use” (GE Healthcare AS, priority 2004, dated 2015).

In the case of `CC(=O)[13C](=O)[O-].[Na+]` [^13C1-pyruvate, sodium ^13C1-pyruvate], the “overall rate of success” value in series [1] (discrimination of tumour and healthy tissue, 26 tumours in 17 rats) stood at 100%. This molecule also had a pH in series [1] (injected solution, mean ±SD) of 8.08±0.14. For the same molecule, the “average polarisation at the time of injection” value in series [1] (mean ±SD, solution in TRIS buffer injected into rats) was 21.2±2.9%. In addition, in series [1] (setting [3]), the “metabolic contrast in the tumour area, lactate signal” value is given as 24 out of 26; the “metabolic contrast in the tumour area, lactate signal, alanine corrected” value is 26 out of 26; the “metabolic contrast in the tumour area, lactate signal, pyruvate corrected” value is on record as 26 out of 26.
With `CC(=O)[13C](=O)O` [^13C1-pyruvic acid], in series [2], the 13C polarisation is listed as 16%.
